3 molecules from patent US20230322722A1, “MODULATORS OF MYC FAMILY PROTO-ONCOGENE PROTEIN” (Nalo Therapeutics, priority 2020, published 2023) can be followed below.

A word on the inhibition: it is how much of the control response was suppressed. Read a low inhibition as little suppression.

Holding throughout (assay type): cell-based
The target in one assay is T1, MycN protein (Homo sapiens, UniProt P04198).
T1 construct: either 2×10^6 of L-363 (human leukemia cell line) or SKNBE2 (neuroblastoma cell line) cells; endogenous in cells; host or cells: SKNBE2 / SK-N-BE(2) neuroblastoma cells
T1 sequence (P04198 1-464): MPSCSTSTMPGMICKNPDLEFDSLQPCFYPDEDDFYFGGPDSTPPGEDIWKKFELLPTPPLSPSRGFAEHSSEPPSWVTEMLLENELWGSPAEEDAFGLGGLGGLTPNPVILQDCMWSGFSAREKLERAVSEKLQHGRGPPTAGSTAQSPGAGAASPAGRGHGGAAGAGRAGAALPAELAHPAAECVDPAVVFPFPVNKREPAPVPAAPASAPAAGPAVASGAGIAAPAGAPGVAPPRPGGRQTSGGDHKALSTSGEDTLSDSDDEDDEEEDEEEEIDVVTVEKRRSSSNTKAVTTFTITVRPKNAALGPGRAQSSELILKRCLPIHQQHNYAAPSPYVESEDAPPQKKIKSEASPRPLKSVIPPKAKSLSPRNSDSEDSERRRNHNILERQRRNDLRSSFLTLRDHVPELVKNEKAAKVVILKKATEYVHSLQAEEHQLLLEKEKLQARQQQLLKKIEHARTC
Briefly: Degradation of MycN protein, Western blot, SKNBE2 cells (Example 160). To be noted: SKNBE2, 6 h. In short, it runs like this:
(§1)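 L-363 or SKNBE2 cells (passage <40, mostly <30) at 1×10^6 cells/mL in RPMI 1640/10% FBS were exposed 6 h to compound added from a 1 mM stock. RIPA lysates (25–30 ug protein) were analysed by SDS-PAGE and immunoblot with 1:500 primary antibody, with protein level quantified by band densitometry.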
For orientation: A western blot detects proteins with antibodies after separation by electrophoresis.

Another assay has as its target T2, MycN protein (n-myc) (Homo sapiens, UniProt P04198).
T2 construct: either 2×10^6 of L-363 (human leukemia cell line) or SKNBE2 (neuroblastoma cell line) cells; endogenous in cells; host or cells: SKNBE2 / SK-N-BE(2) neuroblastoma cells
T2 sequence (P04198 1-464): T1 sequence (P04198 1-464)
Briefly: Degradation of MycN protein, 24 h treatment, JESS Western, SK-N-BE(2) cells (Example 161). Conditions: SKNBE2 cells.

A further assay deals with T3, MycC protein (c-myc) (Homo sapiens, UniProt P01106).
T3 construct: either 2×10^6 of L-363 (human leukemia cell line) cells; endogenous in cells; host or cells: L-363 / L363 human leukemia cells
T3 sequence (P01106 whole entry): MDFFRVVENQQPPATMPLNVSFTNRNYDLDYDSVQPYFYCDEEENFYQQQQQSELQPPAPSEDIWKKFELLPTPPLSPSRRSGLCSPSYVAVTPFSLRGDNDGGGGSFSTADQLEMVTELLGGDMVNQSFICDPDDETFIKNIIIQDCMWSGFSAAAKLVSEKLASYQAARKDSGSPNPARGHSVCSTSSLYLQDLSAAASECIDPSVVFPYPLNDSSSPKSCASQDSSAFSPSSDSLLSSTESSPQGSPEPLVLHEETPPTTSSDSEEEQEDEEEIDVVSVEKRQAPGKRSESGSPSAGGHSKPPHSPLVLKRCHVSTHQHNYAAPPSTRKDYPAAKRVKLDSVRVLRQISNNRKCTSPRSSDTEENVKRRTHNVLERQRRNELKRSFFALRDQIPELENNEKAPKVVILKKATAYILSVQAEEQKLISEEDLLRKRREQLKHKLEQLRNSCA
Briefly: Degradation of MycC protein, 24 h treatment, JESS Western, L363 cells (Example 161). To be noted: L-363 cells. A digest of the protocol: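 L363 suspension cells were seeded at 1E6 per well and exposed to compound, prepared as 10 mM DMSO stocks, for 24 hrs. Cells were pelleted, washed with PBS and lysed on ice in RIPA buffer, and lysate protein was measured by BCA. c-myc was detected by JESS capillary Western in the chemiluminescence channel, normalised to tubulin and GAPDH loading controls read in the NIR channel against a DMSO control.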

Another assay has as its target T4, MycC protein (Homo sapiens, UniProt P01106).
T4 construct: either 2×10^6 of L-363 (human leukemia cell line) or SKNBE2 (neuroblastoma cell line) cells; endogenous in cells; host or cells: L-363 / L363 human leukemia cells
Briefly: Degradation of MycC protein, Western blot, L-363 cells (Example 160). Conditions: 6 h. A digest of the protocol:
as §1

T4 sequence (P01106 whole entry): as above

As to `CN1CC2(CC(N(C)c3nccc(Nc4cc(C5CC5)[nH]n4)n3)C2)C1` [Compound 7, N4-(5-cyclopropyl-1H-pyrazol-3-yl)-N2-methyl-N2-(2-methyl-2-azaspiro[3.3]heptan-6-yl)pyrimidine-2,4-diamine], the inhibition at 2 µM is below 20% on MycN protein and 20 to 49% at MycC protein. Besides, the inhibition at 0.5 µM against MycN protein (n-myc) (0.5 μM) and against MycC protein (c-myc) (0.5 μM) was below 20% each time. Moreover, the inhibition at 1 µM at MycN protein (n-myc) (1 μM) is below 20%; against MycC protein (c-myc) (1 μM), 20 to 49%. The results for the inhibition at 3 µM at MycN protein (n-myc) (3 μM) and against MycC protein (c-myc) (3 μM) were 20 to 49% and 50 to 79%, respectively. Besides, the inhibition at 6 µM at MycN protein (n-myc) (6 μM) and against MycC protein (c-myc) (6 μM) was 80 to 100% in each case.

For the molecule `CN(c1nccc(Nc2cn(C3CCCC3)cn2)n1)[C@H]1CC[C@H](NC(=O)C2Cc3ccccc3C2)CC1` [Compound 130, N-((1R,4R)-4-((4-((1-cyclopentyl-1H-imidazol-4-yl)amino)pyrimidin-2-yl)(methyl)amino)cyclohexyl)-2,3-dihydro-1H-indene-2-carboxamide], the inhibition at 2 µM against MycN protein was below 20%; against MycC protein it was 50 to 79%.

As for `CN(c1nccc(Nc2cc(C3CC3)[nH]n2)n1)[C@H]1CC[C@H](NC(=O)c2cn3cccnc3n2)CC1` [Compound 141, N-((1R,4R)-4-((4-((5-cyclopropyl-1H-pyrazol-3-yl)amino)pyrimidin-2-yl)(methyl)amino)cyclohexyl)imidazo[1,2-a]pyrimidine-2-carboxamide], the inhibition at 2 µM against MycN protein and on MycC protein was 80 to 100% each time.
